Measured values as given in patent US20260240171A1, “BACTERICIDAL COMPOSITION COMPRISING BACILLUS VELEZENSIS TCS001 AND USE THEREOF” (priority 2023, published 2026).

Legend:
[1] = tested on: Bacillus velezensis TCS001; assay: Affinity screening of Bacillus velezensis TCS001 and boscalid; assay type: cell-based; details: boscalid concentration 400 mg/L in LB plates, 28° C.
Experimental: Preparation of Bacillus velezensis TCS001 seed culture: 1,000 mL of LB solid medium (27 mL×30 vials) and 150 mL of LB liquid medium were prepared and sterilized; a single colony of Bacillus velezensis TCS001 was inoculated into the LB liquid medium and cultured in a shaker at 25° C., 164 rpm, for 16 h.
Preparation of toxin-containing medium: technical grade boscalid was dissolved in DMF to prepare a 10% stock solution for later use, which was diluted with sterile water containing 1%. Tween-80 to 10 times the test dose; 3 mL of the agent solution was sequentially pipetted from low concentration to high concentration, added to 27 mL of LB medium, thoroughly shaken, and equally poured into two culture dishes with a diameter of 9 cm to prepare agent-containing plates at corresponding concentrations. Each treatment had 2 replicates.
Affinity screening: the shaken Bacillus velezensis TCS001 seed culture was diluted to 1×10^6 CFU/mL; 40 μL was pipetted and spread onto the agent-containing plates and the control group plates, and incubated in a dark incubator at 28° C. The growth status of TCS001 was observed.

[2] = tested on: strawberry gray mold-causing pathogen; assay: Indoor toxicity determination against strawberry gray mold on strawberry fruits; assay type: in vivo; details: after 4 days
Experimental: Bacillus velezensis TCS001, boscalid, and a mixture of Bacillus velezensis TCS001 and boscalid were diluted to the test doses. Healthy strawberry fruits were used as the test material. The strawberry fruits were immersed in the agent solution for 20 s. Each treatment had 3 replicates, with 9 fruits per replicate, and all fruits were uniformly punctured to a size of 5 mm×5 mm. A spore suspension of strawberry gray mold-causing pathogen at 1*10^5 spores/mL was prepared. After 24 h, the strawberry fruits treated with the agent solution were surface-sprayed with the spore suspension of strawberry gray mold-causing pathogen for inoculation. The strawberry fruits were placed in a high-humidity environment (RH 90-95%) and cultured at a constant temperature of 22° C. After 4 days, the lesion diameter was measured, and the inhibition rate (%) was calculated.
Inhibition rate (%)=(Diameter of colony in blank control−Diameter of colony in treatment)/Diameter of colony in blank control×100.
[formula] • X: inhibition rate of A at a dose of P; • Y: inhibition rate of B at a dose of Q; • E0: theoretical inhibition rate of A+B at a dose of (P+Q); and • E: actual inhibition rate of each treatment.
The Colby method was used to evaluate the synergistic effect of the combination. When E−E0>5%, a synergistic effect was indicated; when E−E0<−5%, an antagonistic effect was indicated; when the value of E−E0 was within ±5%, an additive effect was indicated.

## O=C(Nc1ccccc1-c1ccc(Cl)cc1)c1cccnc1Cl [Boscalid]
[1]
  colony count of Bacillus velezensis TCS001: comparable to that of the blank control
[2]; 10 mg/L
  Lesion Diameter: 1.77 cm
[2]; 12.5 mg/L
  Lesion Diameter: 1.73 cm
[2]; 16 mg/L
  Lesion Diameter: 1.66 cm
[2]; 25 mg/L
  Lesion Diameter: 1.14 cm
[2]; 33 mg/L
  Lesion Diameter: 1.04 cm
[2]; 50 mg/L
  Lesion Diameter: 0.99 cm
[2]; 100 mg/L
  Lesion Diameter: 0.85 cm
[2]; 160 mg/L
  Lesion Diameter: 0.56 cm
[2]; 96 h, 10 mg/L, read-out: Actual Inhibition Rate E
  inhibition at 10 µg/mL: 34.4%
[2]; 96 h, 12.5 mg/L, read-out: Actual Inhibition Rate E
  inhibition at 12.5 µg/mL: 35.9%
[2]; 96 h, 16 mg/L, read-out: Actual Inhibition Rate E
  inhibition at 16 µg/mL: 38.5%
[2]; 96 h, 25 mg/L, read-out: Actual Inhibition Rate E
  inhibition at 25 µg/mL: 57.8%
[2]; 96 h, 33 mg/L, read-out: Actual Inhibition Rate E
  inhibition at 33 µg/mL: 61.5%
[2]; 96 h, 50 mg/L, read-out: Actual Inhibition Rate E
  inhibition at 50 µg/mL: 63.3%
[2]; 96 h, 100 mg/L, read-out: Actual Inhibition Rate E
  inhibition at 100 µg/mL: 68.5%
[2]; 96 h, 160 mg/L, read-out: Actual Inhibition Rate E
  inhibition at 160 µg/mL: 79.3%
